System: ARPE-19 cells
Assay: Cell protection against blue light-induced photooxidation of A2E, extract treated after A2E
Assay type: cell-based
Details: Homo sapiens, ARPE-19, 20 min; 30 μM after A2E 20 μM (positive control), blue light 430 nm 6000 lux 20 min; read-out: cell viability compared to the normal group
Experimental: To investigate the photooxidation by blue light induction (post-treatment), ARPE-19 cells were seeded to a 96-well plate at 1×10^4 cell/well and then incubated→(24 hr later) A2E (20 μM) pre-treated once→(after 24 hr) post-treated with a ginseng berry extract (25, 50, 100 μg/ml) once→(after 24 hr) irradiated with blue light (6000 lux, 20 min)→and then, (after 24 hr) the cell viability was measured by using the cell count kit. Since the A2E accumulated in human retinal pigment epithelial cells (ARPE-19 cells) is known to induce cytotoxicity when irradiated with blue light (BL), cell protective capability and cell viability against blue light-induced photooxidation were analyzed. Human retinal pigment epithelial cells (ARPE-19 cells) were aliquoted in a 96-well tissue culture plate at a density of 1×10^4 cells/well and cultured for 24 hours. After treating with A2E at a concentration of 20 μM and culturing for 24 hours, the experimental group was treated with 25, 50, and 100 μg/mL of the ginseng berry extract, a positive control group was treated with 30 μM of lutein instead of the ginseng berry extract, and A2E was accumulated in a negative control group without preliminary drug treatment. After culturing for 24 hours, blue light (BL, 430 nm, 6000 lux) was irradiated for 20 minutes, and after 24 hours, the cell viability was measured by using the cell count kit.

CC1=C[C@H](O)CC(C)(C)[C@H]1/C=C/C(C)=C/C=C/C(C)=C/C=C/C=C(C)/C=C/C=C(C)/C=C/C1=C(C)C[C@@H](O)CC1(C)C [lutein]
viability at 30 µM: 88.2%

— patent publication US20240058408A1, “COMPOSITION FOR PREVENTING OR TREATING MACULAR DEGENERATION CONTAINING GINSENG BERRY EXTRACT” (HOLISTIC BIO CO., LTD., priority 2020, published 2024)
